Data published in patent publication US9351963B2, “Defensin-like molecules as novel antimicrobial agents” (UNIVERSITY OF MARYLAND, BALTIMORE, priority 2010, dated 2016).

Tests used:
[1] = Surface Plasmon Resonance binding to immobilized 3-Lipid II (BIAcore); conditions: SPR, 10 μM, room temperature, 40 RUs 3-Lipid II
Procedure: Short-chain water-soluble Lipid II containing a lipid tail of three isoprene units was generated and purified essentially as described (Breukink, E., van Heusden, H. E., Vollmerhaus, P. J., Swiezewska, E., Brunner, L., Walker, S., Heck, A. J., and de Kruijff, B. (2003) J Biol Chem 278, 19898-19903). Typically, M. flavus vesicles (120 μmol lipid-Pi) were incubated together with 500 μmol UDP-GlcNAc, 500 μmol UDP-MurNAC-pentapeptide and 400 μmol farnesyl phosphate (3-P) in 100 mM Tris-HCl pH 8.0, 5 mM MgCl2. The incubation lasted two hours at room temperature for 3-P. The synthesis of 3-Lipid II was followed using RP-8 reversed phase TLC (Merck) developed in 75% methanol. For purification, the membranes were removed by centrifugation at 40,000×g and the supernatant was collected and loaded on a C18 HPLC column and eluted with a linear gradient from 50 mM ammonium bicarbonate to 100% methanol in 30 minutes. Farnesyl-Lipid II (3-Lipid II) eluted at approximately 60% methanol. Its identity was confirmed by mass spectroscopy.
Surface Plasmon Resonance binding experiments were carried out on a BIAcore T100 system (BIAcore Inc., Piscataway, N.Y.) at 25° C. The assay buffer was 10 mM HEPES, 150 mM NaCl, 0.05% surfactant P20, pH 7.4 (±3 mM EDTA) supplemented with 10% DMSO. […] For initial determination of binding, defensin mimetics were introduced into the flow-cells (30 μl/min) in the running buffer at 10 μM. Resonance signals were corrected for nonspecific binding by subtracting the background of the control flow-cell. After each analysis, the sensor chip surfaces were regenerated with 50 mM NaOH for 30 s at a flow rate 100 μl/min, and equilibrated with the buffer prior to next injection. For binding kinetics studies, binding isotherms were analyzed with manufacturer-supplied software for BIAcore T100.

[2] = test system: Escherichia coli ATCC 25922; assay: 96-well turbidimetric antibacterial killing assay, E. coli; format: cell-based; conditions: E. coli ATCC 25922, 120 min exposure
Procedure: The antibacterial activity of defensin mimetics against Staphylococcus aureus ATCC 29213 and Escherichia coli 25922 was carried out in a 96-well turbidimetric assay essentially as described (Ericksen, B., Wu, Z., Lu, W., and Lehrer, R. I. (2005) Antimicrob Agents Chemother 49, 269-275) with the following modifications: compounds were exposed for 30 min to […] prior to addition of […] in 10 mM phosphate buffer containing 5% DMSO. Bacterial growth was monitored for 12 hours and data were analyzed as described (Ericksen, et al). Determination of MICs was performed by Micromyx, LLC (Kalamazoo, Mich.) according to CLSI standards (CLSI. (2009) Methods for Dilution Antimicrobial Susceptibility Tests for Bacteria That Grow Aerobically; Approved Standard—Eighth Edition.)
The inventors have previously reported on the antibacterial activity of HNP1 and all of its structurally uncompromised single alanine mutants against S. aureus (Wei, G., Pazgier, M., de Leeuw, E., Rajabi, M., Li, J., Zou, G., Jung, G., Yuan, W., Lu, W. Y., Lehrer, R. I., and Lu, W. J Biol Chem 285, 16275-16285). […] If these residues are indeed important for Lipid II binding, one would expect that replacement by alanine will not affect killing of Gram-negative bacteria. […] In particular, FIG. 12 depicts killing of E. coli by HNP-1 Lipid II single alanine mutants. Survival curves of E. coli ATCC 25922 exposed to HNP-1 or HNP-1 single alanine mutants at concentrations varying two-fold from […]. Bacteria were exposed to defensin peptides for 120 min. Each curve is the mean of two separate experiments (±S.D.). Points scored as zero survival could not be plotted.

[3] = test system: Staphylococcus aureus ATCC 29213; conditions: previously reported (Wei et al., J Biol Chem 285); cited from earlier work

Leu25: HNP-1 single alanine mutant, Leu25 replaced by alanine
Binding of HNP-1 single alanine mutants to Lipid II compared to wild-type HNP-1 [1]: significant reduction of binding | Bactericidal activity against E. coli relative to wild-type HNP-1 [2]: comparable to the wild-type peptide | Killing of S. aureus by HNP-1 single alanine mutants [3]: severely compromised

Ile20: HNP-1 single alanine mutant, Ile20 replaced by alanine
Binding of HNP-1 single alanine mutants to Lipid II compared to wild-type HNP-1 [1]: significant reduction of binding | Bactericidal activity against E. coli relative to wild-type HNP-1 [2]: comparable to the wild-type peptide | Killing of S. aureus by HNP-1 single alanine mutants [3]: severely compromised
